Source: patent US9650340B2, “5-fluoro-N-(pyridin-2-yl)pyridin-2-amine derivatives containing a sulfoximine group” (BAYER PHARMA AKTIENGESELLSCHAFT, priority 2012, dated 2017)
pIC50: −log10 of the molar value.

Experiments:
CDK2/CycE [1] = biological target: T1, CDK2/CycE (Homo sapiens, UniProt P24941); experiment: CDK2/CycE kinase assay (TR-FRET, 10 μM ATP); format: biochemical; conditions: Method 2 (2a)
T1 construct: GST; purchased ProQinase GmbH (Freiburg, Germany); host or cells: insect cells (Sf9)
Description: 2a. CDK2/CycE Kinase Assay:
CDK2/CycE-inhibitory activity of compounds of the present invention was quantified employing the CDK2/CycE TR-FRET assay as described in the following paragraphs:
(§1) Recombinant fusion proteins of GST and human CDK2 and of GST and human CycE, expressed in insect cells (Sf9) and purified by Glutathion-Sepharose affinity chromatography, were purchased from ProQinase GmbH (Freiburg, Germany). As substrate for the kinase reaction biotinylated peptide biotin-Ttds-[…] (C-terminus in amid form) was used which can be purchased e.g. form the company JERINI Peptide Technologies (Berlin, Germany).
(§2) For the assay 50 nl of a 100 fold concentrated solution of the test compound in DMSO was pipetted into a black low volume 384 well microtiter plate (Greiner Bio-One, Frickenhausen, Germany), 2 μl of a solution of CDK2/CycE in aqueous assay buffer [50 mM Tris/HCl pH 8.0, 10 mM MgCl2, 1.0 mM dithiothreitol, 0.1 mM sodium ortho-vanadate, 0.01% (v/v) Nonidet-P40 (Sigma)] were added and the mixture was incubated for 15 min at 22° C. to allow pre-binding of the test compounds to the enzyme before the start of the kinase reaction. Then the kinase reaction was started by the addition of 3 μl of a solution of adenosine-tri-phosphate (ATP, 16.7 μM=>final conc. in the 5 μl assay volume is 10 μM) and substrate (1.25 μM=>final conc. in the 5 μl assay volume is 0.75 μM) in assay buffer and the resulting mixture was incubated for a reaction time of 25 min at 22° C. The concentration of CDK2/CycE was adjusted depending of the activity of the enzyme lot and was chosen appropriate to have the assay in the linear range, typical concentrations were in the range of 130 ng/mL The reaction was stopped by the addition of 5 μl of a solution of TR-FRET detection reagents (0.2 μM streptavidine-XL665 [Cisbio Bioassays, Codolet, France] and 1 nM anti-RB(pSer807/pSer811)-antibody from BD Pharmingen [#558389] and 1.2 nM LANCE EU-W1024 labeled anti-mouse IgG antibody [Perkin-Elmer, product no. AD0077]) in an aqueous EDTA-solution (100 mM EDTA, 0.2% (w/v) bovine serum albumin in 100 mM HEPES/NaOH pH 7.0).
(§3) The resulting mixture was incubated 1 h at 22° C. to allow the formation of complex between the phosphorylated biotinylated peptide and the detection reagents. Subsequently the amount of phosphorylated substrate was evaluated by measurement of the resonance energy transfer from the Eu-chelate to the streptavidine-XL. Therefore, the fluorescence emissions at 620 nm and 665 nm after excitation at 350 nm was measured in a TR-FRET reader, e.g. a Rubystar (BMG Labtechnologies, Offenburg, Germany) or a Viewlux (Perkin-Elmer). The ratio of the emissions at 665 nm and at 622 nm was taken as the measure for the amount of phosphorylated substrate.

CDK2/CycE [2] = biological target: T1, CDK2/CycE; experiment: CDK2/CycE high ATP kinase assay (TR-FRET, 2 mM ATP); format: biochemical; conditions: Method 2b
Description: 2b. CDK2/CycE High ATP Kinase Assay:
CDK2/CycE-inhibitory activity of compounds of the present invention at 2 mM adenosine-tri-phosphate (ATP) was quantified employing the CDK2/CycE TR-FRET (TR-FRET=Time Resolved Fluorescence Energy Transfer) assay as described in the following paragraphs.
as §1, with “were purchase” for “were purchased”, “JERINI peptide technologies” for “JERINI Peptide Technologies”
as §2, with “ATP (3.33 mM=>final” for “of adenosine-tri-phosphate (ATP, 16.7 μM=>final”, “2 mM)” for “10 μM)”, “15 ng/ml.” for “130 ng/mL”, “AD0077, as an alternative a Terbium-cryptate-labeled anti-mouse IgG antibody from Cisbio Bioassays can be used])” for “AD0077])”
as §3, with “350 nm were measured in” for “350 nm was measured in”

pIC50 (CDK2/CycE [1]): 6.70 | pIC50 (CDK2/CycE [2]): 5.47
Compound: COc1cc(F)ccc1-c1cc(Nc2cc(CS(C)(=N)=O)ccn2)ncc1F.Cl (single isomer, unassigned; enantiomer 2) [Example 14, 5-Fluoro-4-(4-fluoro-2-methoxyphenyl)-N-{4-[(S-methylsulfonimidoyl)methyl]pyridin-2-yl}pyridin-2-amine hydrochloride; enantiomer 2]
